In US7056945B1, “Selective inhibition of neuronal nitric oxide synthase” (priority 2002, dated 2006):
One block for each compound: values may come before it.

What was measured:
D597N nNOS mutant = molecular target: T1, D597N nNOS mutant (Rattus norvegicus, UniProt P29476, D597N); assay: Ki for inhibition of D597N nNOS mutant; type: biochemical
T1 construct: made in house
Description: (§1) We next tested this hypothesis by producing D597N nNOS and N368D eNOS mutant proteins.

wild type nNOS = wild type nNOS (Rattus norvegicus, UniProt P29476); assay: Ki for inhibition of wild type nNOS; type: biochemical
Description: as §1

N368D eNOS mutant = N368D eNOS mutant (Bos taurus, UniProt P29473, N368D); assay: Ki for inhibition of N368D eNOS mutant; type: biochemical; settings: Asn368 replaced with Asp in eNOS (N368D eNOS mutant)
Description: as §1

NOS = settings: cited from earlier work
all three NOS isoforms = settings: similar for all three NOS isoforms; cited from earlier work

Ki (D597N nNOS mutant): 21 µM | Ki (wild type nNOS): 97 nM | Ki (N368D eNOS mutant): 5.1 µM
SMILES: NC(=O)[C@@H]1C[C@@H](N)CN1C(=O)[C@@H](N)CCC/N=C(\N)N[N+](=O)[O-] [DIP3, L-N^□-nitroarginine-(4R)-amino-L-proline amide]

SMILES: N=C(NCCC[C@H](N)C(=O)O)N[N+](=O)[O-] [L-NNA, L-N^ω-nitroarginine]
potency (NOS; L-NNA bound in the active site of eNOS (FIG. 1C legend)): low nM | selectivity between NOS isoforms (NOS): poor selectivity

SMILES: N=C(N)NCCC[C@H](N)C(=O)O [L-arginine]
Km (all three NOS isoforms): low μM range
